What was measured:
Test in all cases: relative viability (nuclei count vs DMSO), 5 days (fraction); higher = more cells survive
[1] = tested on: A-427
Outline: (§1)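 Nuclei were stained with Hoechst during a one-step fixation (final 0.05% Triton X-100, 1% formaldehyde, 1 ug/ml Hoechst) carried out 5 days after dosing, then counted on 4× images. The cells, lung cancer lines in 1536-well plates, had been dosed by pin tool the day after seeding with one drug alone or a fixed anchor-drug dose plus five library-drug doses (not always all listed) in √10 steps. Relative viability is the nuclei count in treated wells divided by that in vehicle wells, and each value is the median of duplicate plates.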

[2] = tested on: HCC-44
Outline: as §1

[3] = tested on: NCI-H1623
Outline: as §1

[4] = tested on: NCI-H1648
Outline: as §1

[5] = tested on: NCI-H1650
Outline: as §1

[6] = tested on: NCI-H1993
Outline: as §1

[7] = tested on: NCI-H2023
Outline: as §1

[8] = tested on: RERF-LC-KJ
Outline: as §1

[9] = tested on: SW 1573
Outline: as §1

Compound: COCC1(CO)C(=O)C2CCN1CC2 (stereo not given) [PRIMA-1MET] + COc1cccc2cc(-c3nc([C@H]4CC[C@H](C(=O)O)CC4)n4ncnc(N)c34)[nH]c12 [OSI-027] (partner 0.5 µM)
- relative viability ([1]; first compound 0.2 µM): 0.284
- relative viability ([1]; first compound 0.6325 µM): 0.444
- relative viability ([1]; first compound 2 µM): 0.389
- relative viability ([1]; first compound 6.325 µM): 0.263
- relative viability ([1]; first compound 20 µM): 0.369
- relative viability ([2]; first compound 0.2 µM): 0.584
- relative viability ([2]; first compound 0.6325 µM): 0.472
- relative viability ([2]; first compound 2 µM): 0.383
- relative viability ([2]; first compound 6.325 µM): 0.397
- relative viability ([2]; first compound 20 µM): 0.485
- relative viability ([3]; first compound 0.2 µM): 0.374
- relative viability ([3]; first compound 0.6325 µM): 0.405
- relative viability ([3]; first compound 2 µM): 0.445
- relative viability ([3]; first compound 6.325 µM): 0.42
- relative viability ([3]; first compound 20 µM): 0.303
- relative viability ([4]; first compound 0.2 µM): 0.24
- relative viability ([4]; first compound 0.6325 µM): 0.252
- relative viability ([4]; first compound 2 µM): 0.283
- relative viability ([4]; first compound 6.325 µM): 0.256
- relative viability ([4]; first compound 20 µM): 0.249
- relative viability ([5]; first compound 0.2 µM): 0.742
- relative viability ([5]; first compound 0.6325 µM): 0.664
- relative viability ([5]; first compound 2 µM): 0.483
- relative viability ([5]; first compound 6.325 µM): 0.636
- relative viability ([5]; first compound 20 µM): 0.0483
- relative viability ([6]; first compound 0.2 µM): 0.569
- relative viability ([6]; first compound 0.6325 µM): 0.561
- relative viability ([6]; first compound 2 µM): 0.518
- relative viability ([6]; first compound 6.325 µM): 0.532
- relative viability ([6]; first compound 20 µM): 0.49
- relative viability ([7]; first compound 0.2 µM): 0.453
- relative viability ([7]; first compound 0.6325 µM): 0.366
- relative viability ([7]; first compound 2 µM): 0.363
- relative viability ([7]; first compound 6.325 µM): 0.4
- relative viability ([7]; first compound 20 µM): 0.241
- relative viability ([8]; first compound 0.2 µM): 0.56
- relative viability ([8]; first compound 0.6325 µM): 0.625
- relative viability ([8]; first compound 2 µM): 0.54
- relative viability ([8]; first compound 6.325 µM): 0.662
- relative viability ([8]; first compound 20 µM): 0.588
- relative viability ([9]; first compound 0.2 µM): 0.622
- relative viability ([9]; first compound 0.6325 µM): 0.482
- relative viability ([9]; first compound 2 µM): 0.597
- relative viability ([9]; first compound 6.325 µM): 0.0316
- relative viability ([9]; first compound 20 µM): 0.032

Compound: COCC1(CO)C(=O)C2CCN1CC2 (stereo not given) [PRIMA-1MET] + Cc1cc(Nc2cc(N3CCN(C)CC3)nc(Sc3ccc(NC(=O)C4CC4)cc3)n2)n[nH]1 [Tozasertib] (partner 0.1 µM)
- relative viability ([1]; first compound 0.2 µM): 0.163
- relative viability ([1]; first compound 0.6325 µM): 0.201
- relative viability ([1]; first compound 2 µM): 0.203
- relative viability ([1]; first compound 6.325 µM): 0.186
- relative viability ([1]; first compound 20 µM): 0.175
- relative viability ([2]; first compound 0.2 µM): 1.18
- relative viability ([2]; first compound 0.6325 µM): 0.958
- relative viability ([2]; first compound 2 µM): 0.811
- relative viability ([2]; first compound 6.325 µM): 1.01
- relative viability ([2]; first compound 20 µM): 0.827
- relative viability ([3]; first compound 0.2 µM): 0.474
- relative viability ([3]; first compound 0.6325 µM): 0.449
- relative viability ([3]; first compound 2 µM): 0.445
- relative viability ([3]; first compound 6.325 µM): 0.452
- relative viability ([3]; first compound 20 µM): 0.367
- relative viability ([4]; first compound 0.2 µM): 0.415
- relative viability ([4]; first compound 0.6325 µM): 0.361
- relative viability ([4]; first compound 2 µM): 0.391
- relative viability ([4]; first compound 6.325 µM): 0.574
- relative viability ([4]; first compound 20 µM): 0.465
- relative viability ([5]; first compound 0.2 µM): 0.516
- relative viability ([5]; first compound 0.6325 µM): 0.377
- relative viability ([5]; first compound 2 µM): 0.492
- relative viability ([5]; first compound 6.325 µM): 0.537
- relative viability ([5]; first compound 20 µM): 0.0907
- relative viability ([6]; first compound 0.2 µM): 0.674
- relative viability ([6]; first compound 0.6325 µM): 0.541
- relative viability ([6]; first compound 2 µM): 0.566
- relative viability ([6]; first compound 6.325 µM): 0.569
- relative viability ([6]; first compound 20 µM): 0.662
- relative viability ([7]; first compound 0.2 µM): 0.461
- relative viability ([7]; first compound 0.6325 µM): 0.327
- relative viability ([7]; first compound 2 µM): 0.389
- relative viability ([7]; first compound 6.325 µM): 0.359
- relative viability ([7]; first compound 20 µM): 0.35
- relative viability ([8]; first compound 0.2 µM): 0.53
- relative viability ([8]; first compound 0.6325 µM): 0.523
- relative viability ([8]; first compound 2 µM): 0.58
- relative viability ([8]; first compound 6.325 µM): 0.498
- relative viability ([8]; first compound 20 µM): 0.431
- relative viability ([9]; first compound 0.2 µM): 0.189
- relative viability ([9]; first compound 0.6325 µM): 0.0874
- relative viability ([9]; first compound 2 µM): 0.191
- relative viability ([9]; first compound 6.325 µM): 0.0585
- relative viability ([9]; first compound 20 µM): 0.0263

Compound: COCC1(CO)C(=O)C2CCN1CC2 (stereo not given) [PRIMA-1MET] + Cc1nc(Nc2ncc(C(=O)Nc3c(C)cccc3Cl)s2)cc(N2CCN(CCO)CC2)n1 [Dasatinib] (partner 0.075 µM)
- relative viability ([1]; first compound 0.2 µM): 0.547
- relative viability ([1]; first compound 0.6325 µM): 0.577
- relative viability ([1]; first compound 2 µM): 0.721
- relative viability ([1]; first compound 6.325 µM): 0.602
- relative viability ([1]; first compound 20 µM): 0.15
- relative viability ([3]; first compound 0.2 µM): 0.517
- relative viability ([3]; first compound 0.6325 µM): 0.563
- relative viability ([3]; first compound 2 µM): 0.518
- relative viability ([3]; first compound 6.325 µM): 0.577
- relative viability ([3]; first compound 20 µM): 0.519
- relative viability ([5]; first compound 0.2 µM): 0.341
- relative viability ([5]; first compound 0.6325 µM): 0.327
- relative viability ([5]; first compound 2 µM): 0.337
- relative viability ([5]; first compound 6.325 µM): 0.282
- relative viability ([5]; first compound 20 µM): 0.06
- relative viability ([6]; first compound 0.2 µM): 0.596
- relative viability ([6]; first compound 0.6325 µM): 0.587
- relative viability ([6]; first compound 2 µM): 0.574
- relative viability ([6]; first compound 6.325 µM): 0.554
- relative viability ([6]; first compound 20 µM): 0.582
- relative viability ([7]; first compound 0.2 µM): 0.601
- relative viability ([7]; first compound 0.6325 µM): 0.586
- relative viability ([7]; first compound 2 µM): 0.567
- relative viability ([7]; first compound 6.325 µM): 0.57
- relative viability ([7]; first compound 20 µM): 0.229
- relative viability ([8]; first compound 0.2 µM): 0.759
- relative viability ([8]; first compound 0.6325 µM): 0.833
- relative viability ([8]; first compound 2 µM): 0.931
- relative viability ([8]; first compound 6.325 µM): 0.895
- relative viability ([8]; first compound 20 µM): 0.673
- relative viability ([9]; first compound 0.2 µM): 0.452
- relative viability ([9]; first compound 0.6325 µM): 0.411
- relative viability ([9]; first compound 2 µM): 0.356
- relative viability ([9]; first compound 6.325 µM): 0.0331
- relative viability ([9]; first compound 20 µM): 0.0202

From the supplement of paper PMC10307832
